Source: US9328326B2, “Method for isolating cells” (MERCK PATENT GMBH, priority 2006, dated 2016)

Tests used:
[1] = test system: Gram negative bacteria; assay: recovery of Gram negative bacteria in matrix lysis; type: cell-based; conditions: as detergent of the lysis buffer
Experimental: Combinations of five different detergents (Tween 20®, Tween 80®, Triton X-100®; SDS, and Lutensol AO-7), three enzymes (Protease, alpha-amylase and cellulase) and a sucrose buffer (0.25 M sucrose, 1 mM EDTA and 0.05 M Tris, pH 7.6) were compared with respect of their ability to dissolve food matrices (salmon, chicken meat, diary products, ice cream, blood, starch rich foodstuffs, egg and milk) and their effect on the cellular appearance of the bacterial cells. All chemicals used (with the exception of SDS, Sigma-Aldrich, Germany; Lutensol AO-7, BASF, Netherland and Savinase, Novozymes, Denmark) were purchased at Merck (Germany). The matrix lysis protocol is described below.
Matrix lysis was generally performed as described in example 1. Processing meat, fish, chicken and blood or when Gram positive bacteria were targeted, buffer system I (8 M urea, 1% SDS, and 1×PBS) was used. Buffer system II (8 M urea, 1% Lutensol AO-7 and 1×PBS) was used if Gram negative bacteria were targeted and for all other foodstuffs used (Milk, diary products, ice cream, and egg).

[2] = test system: prfA gene of L. monocytogenes (real-time PCR); assay: inhibitory effects of detergents on real-time PCR; type: biochemical
Experimental: For experiments analysing the effects of food matrices and detergents contained in the matrix lysis buffer on real-time PCR, food matrices were mixed with equal amounts of ddH2O, stomachered for 3 minutes, diluted in a 10-fold dilution series (10^−1, 10^−2 and 10^−3) and 5 μl directly subjected to the real time PCR samples. An aliquot was cooked 15 min at 100° C. for comparison prior to subjection of 5 μl to real-time PCR. Detergents were diluted in 2-fold dilution series (0.4 M-0.05 M Urea and 0.8%-0.005% SDS) and 5 μl were subjected to the real-time PCR samples.
Real-time PCR was performed in an Mx3000p real-time PCR thermocycler (Stratagene, USA). The 25 μl volume contained 20 mM Tris-HCl, 50 mM KCl, 3.5 mM MgCl2. 500 nM of each primer, 250 nM of each probe, 200 μM (each) of dATP, dTTP, dGTP and dCTP, 1.5 U of Platinum Taq DNA polymerase (Invitrogen, Austria), 25 copies of the IAC and […]. Amplification following initial denaturation at 94° C. for 2 min was performed in 45 cycles, at each 94° C. for 15 s and 64° C. for 1 minute.

[3] = test system: L. monocytogenes; assay: growth of L. monocytogenes after treatment with compounds of the matrix lysis protocol (Example 1); type: cell-based; conditions: incubated 2 h at 45 °C in the compound, then plated
Experimental: L. monocytogenes EGDe was used as a DNA quantification standard for real-time PCR and for artificial contamination of food samples. The bacteria were maintained at -80° C. using the MicroBank technology (Pro-Lab Diagnostics, Canada). Listeria were grown in tryptone soy broth with 0.6% ([…]; Oxoid, UK) at 37° C. over night. For artificial contamination of food and viability staining, one milliliter of the over night culture was transferred to one milliliter of fresh medium and incubated at 37° C. for three hours. Plate count method and tryptone soy agar plates supplemented with 0.6% (w/v) yeast extract (TSA-Y; Oxoid, UK) were used for quantification of the pure cultures of L. monocytogenes. The agar plates were incubated at 37° C. for 24 hours. For determination of the survival rate of L. monocytogenes treated with different chemical compounds of the matrix lysis buffer system, 100 μl of an overnight culture of L. monocytogenes was pelleted at 8,000×g for 5 min, resuspended in the chemical compound of choice, and incubated for 2 h at 45° C. and 300 rpm on an Eppendorf shaker (Eppendorf, Germany). Afterwards the bacterial cells were washed twice in 1×PBS at 5,000×g and resuspended in 120 μl 1×PBS. One-hundred μl of the suspension was plated on […] agar plates (Biokar, Beauvais, France). Incubation was performed 48 h at 37° C.

[4] = test system: L. monocytogenes; assay: plate growth after exposure to chemical compounds; type: cell-based
Experimental: (§1) For assessment of the survival rate of the bacteria treated with different chemical compounds of the matrix lysis buffer system, 100 μl of an overnight culture was pelleted at 8,000×g for 5 min, re-suspended in 1 ml of the chemical compound of choice, […] shaker (Eppendorf, Germany). The bacterial cells were then washed twice in 1×PBS at 5,000×g and re-suspended in 120 μl 1×PBS. One-hundred it of the suspension was plated onto TSB-Y agar plates (Oxoid). Incubation was performed for 48 h at 37° C. Additionally the Live/Dead® BacLight™ Bacterial Viability Kit (Molecular Probes, USA) was used to examine the condition of the bacteria after the chemical treatments.

[5] = test system: S. aureus; assay: plate growth after exposure to chemical compounds; type: cell-based
Experimental: as §1

[6] = test system: S. thyphimurium; assay: plate growth after exposure to chemical compounds; type: cell-based
Experimental: as §1

[7] = test system: B. cereus; assay: plate growth after exposure to chemical compounds; type: cell-based
Experimental: as §1

[8] = test system: E. coli; assay: plate growth after exposure to chemical compounds; type: cell-based
Experimental: as §1

[9] = test system: L. monocytogenes; assay: BacLight viability staining after exposure to chemical compounds; type: cell-based; parameters: key: red: Red colour indicates dead cells; c.r.: Reduced cell count; green: Green colour indicates living cells
Experimental: as §1
(§2) Viability staining was performed using the Live/Dead® BacLight™ Bacterial Viability Kit (Molecular Probes) as prescribed by the manufacturer. Ten fields per filter were analysed, and two filters were prepared for each sample.

[10] = test system: S. aureus; assay: as above; type: cell-based; parameters: key: red: Red colour indicates dead cells; c.r.: Reduced cell count; green: Green colour indicates living cells
Experimental: as §1, §2

[11] = test system: B. cereus; assay: as above; type: cell-based; parameters: key: red: Red colour indicates dead cells; c.r.: Reduced cell count; green: Green colour indicates living cells
Experimental: as §1, §2

[12] = test system: E. coli; assay: as above; type: cell-based; parameters: key: red: Red colour indicates dead cells; c.r.: Reduced cell count; green: Green colour indicates living cells
Experimental: as §1, §2

[13] = test system: S. thyphimurium; assay: as above; type: cell-based
Experimental: as §1, §2

Structure (SMILES): CCCCCCCCCCCCOS(=O)(=O)[O-].[Na+] [1% SDS, sodium dodecyl sulfate]
- recovery of Gram negative bacteria [1]: decreasing the recovery
- inhibitory effect on real-time PCR ([2]; SDS 0.8% to 0.005%, 15.5 and 1,550 copies/PCR): no amplification
- growth of L. monocytogenes on TSY agar after treatment [3]: Complete inhibition of growth

Structure (SMILES): NC(N)=O [8 M Urea, urea]
- L. monocytogenes Plate growth ([4]; 37 °C): pos..
- L. monocytogenes Plate growth ([4]; 42 °C): pos..
- L. monocytogenes Plate growth ([4]; 45 °C): pos..
- S. aureus Plate growth ([5]; 37 °C): pos..
- S. aureus Plate growth ([5]; 42 °C): pos..
- S. aureus Plate growth ([5]; 45 °C): pos..
- S. thyphimurium Plate growth ([6]; 37 °C): neg.
- S. thyphimurium Plate growth ([6]; 42 °C): neg.
- S. thyphimurium Plate growth ([6]; 45 °C): neg.
- B. cereus Plate growth ([7]; 37 °C): pos..
- B. cereus Plate growth ([7]; 42 °C): pos..
- B. cereus Plate growth ([7]; 45 °C): pos..
- E. coli Plate growth ([8]; 37 °C): neg.
- E. coli Plate growth ([8]; 42 °C): neg.
- L. monocytogenes BacLight ([9]; 37 °C): green^c
- L. monocytogenes BacLight ([9]; 42 °C): green
- L. monocytogenes BacLight ([9]; 45 °C): green
- S. aureus BacLight ([10]; 37 °C): green
- S. aureus BacLight ([10]; 42 °C): green
- S. aureus BacLight ([10]; 45 °C): green
- B. cereus BacLight ([11]; 37 °C): green
- B. cereus BacLight ([11]; 42 °C): green
- B. cereus BacLight ([11]; 45 °C): green
- E. coli BacLight ([12]; 37 °C): red^a
- E. coli BacLight ([12]; 42 °C): c.r./red
- E. coli BacLight ([12]; 45 °C): c.r./red
- inhibitory effect on real-time PCR ([2]; urea 0.4 M and 0.2 M, 15.5 copies of the target): total inhibition
- inhibitory effect on real-time PCR ([2]; urea 0.4 M, 1,550 copies of the target): total inhibition
- S. thyphimurium BacLight ([13]; 37 °C): c.r.^b/red
- S. thyphimurium BacLight ([13]; 42 °C): c.r./red
- S. thyphimurium BacLight ([13]; 45 °C): c.r./red
- growth of L. monocytogenes on TSY agar after treatment [3]: able to grow
